Experimental findings from patent publication US6750349B2, “Gastrokinetic monocyclic benzamides of 3-or 4-substituted 4-(aminoethyl)-piperidine derivatives” (Janssen Pharmaceutics, N.V., priority 1997, dated 2004) are described below.

The structures appear in SMILES notation.

In the assay the test system is conscious dogs. Kind of assay: Gastric emptying of an acaloric liquid test meal delayed by administration of lidamidine, in conscious dogs. Particulars: conscious dog; for ΔT/T^b (acceleration of gastric emptying of a liquid meal delayed by lidamidine): dose of 0.0025 mg/kg; for ΔT/T^a (acceleration of gastric emptying of a liquid meal delayed by lidamidine): dose of 0.01 mg/kg. The class given is in vivo, beagle dogs. An excerpt:
C.1. Gastric Emptying of an Acaloric Liquid Test Meal Delayed by Administration of Lidamidine, in Conscious Dogs
Female beagle dogs, weighing 7-14 kg, were trained to stand quietly in Pavlov frames. They were implanted with a gastric cannula under general anesthesia and aseptic precautions. After a median laparatomy, an incision was made through the gastric wall in the longitudinal direction between the greater and the lesser curve, 2 cm above the nerves of Latarjet. The cannula was secured to the gastric wall by means of a double purse string suture and brought out via a stab wound at the left quadrant of the hypochondrium. Dogs were allowed a recovery period of at least two weeks. Experiments were started after a fasting period of 24 hours, during which water was available ad libitum. At the beginning of the experiment, the cannula was opened in order to remove any gastric juice or food remnants.
The stomach was cleansed with 40 to 50 ml lukewarm water. The test compound was administered I.V. (in a volume≦3 ml via the vena cephalica), S. C. (in a volume≦3 ml) or P. O. (in a volume of 1 ml/kg body weight, applied intragastrically via the cannula with a device that filled the lumen of the cannula; after injection of the test compound, 5 ml NaCl 0.9% was injected in order to correct for the dead space in the injection system). Immediately after administration of the test compound or its solvent, lidamidine 0.63 mg/kg was administered subcutaneously. 30 min later, the cannula was opened to determine the amount of fluid present in the stomach, promptly followed by reintroduction of the fluid. Then the test meal was administered via the cannula. This test meal consisted of 250 ml distilled water containing glucose (5 g/l) as a marker. The cannula remained closed for 30 min, whereafter the gastric contents were drained from the stomach to measure total volume (t=30 min). For later analysis 1 ml of the gastric contents was taken, promptly followed by reintroduction of the rest volume into the stomach. This sequence was repeated 4 times with 30 min intervals (t=60, 90, 120, 150 min).
In the 1 ml samples of the gastric contents, the glucose concentrations were measured on a Hitachi 717 automatic analyzer by the hexokinase method (Schmidt, 1961).
Curves were fitted to the measurement points (glucose versus time) using weighed non-linear regression analysis. Gastric emptying was quantified as the time needed to empty 70% of the meal (t70%). The control emptying time was calculated as the mean t70% of the last 5 solvent experiments of the same dog. Acceleration of delayed gastric emptying (Δt) was calculated as the time difference between t70% compound and t70% solvent. To correct for variations in emptying rate between dogs, Δt was expressed as % of t70% solvent (Schuurkes et al, 1992)).

Setting [1] is: compounds, Δt = t70% compound minus t70% solvent, relative to t70% solvent.

In the case of `CCCCN1CC[C@@H](CNC(=O)c2cc(Cl)c(N)c(OC)c2OC)[C@H](O)C1.O` (racemic) [Compound 9, (±)-trans-4-amino-N-[(1-butyl-3-hydroxy-4-piperidinyl)methyl] -5-chloro-2,3-dimethoxybenzamide monohydrate], the “ΔT/T^b (acceleration of gastric emptying of a liquid meal delayed by lidamidine)” value reads like this: under setting [1], −0.29; (intermediates) −0.40. Moreover, the “ΔT/T^a (acceleration of gastric emptying of a liquid meal delayed by lidamidine)” value under setting [1] is −0.55 and the “ΔT/T^a (acceleration of gastric emptying of a liquid meal delayed by lidamidine)” value (intermediates) is −0.31.
Consider `COc1c(C(=O)NC[C@@H]2CCN(CCCC(C)=O)C[C@H]2O)cc(Cl)c(N)c1OC.O` (racemic) [Compound 14, (±)-trans-4-amino-5-chloro-N-[[3-hydroxy-1-(4-oxopentyl)-4-piperidinyl]methyl]-2,3-dimethoxybenzamide monohydrate], for which, under setting [1], the “ΔT/T^b (acceleration of gastric emptying of a liquid meal delayed by lidamidine)” value was −0.52 and the “ΔT/T^a (acceleration of gastric emptying of a liquid meal delayed by lidamidine)” value is −0.67.
For `COCCCN1CC[C@@H](CNC(=O)c2cc(Cl)c(N)c(OC)c2OC)[C@H](O)C1` (racemic) [Compound 11, (±)-trans-4-amino-5-chloro-N-[[3-hydroxy-1-(3-methoxypropyl)-4-piperidinyl]methyl]-2,3-dimethoxybenzamide], under setting [1], the “ΔT/T^b (acceleration of gastric emptying of a liquid meal delayed by lidamidine)” value is −0.62 and the “ΔT/T^a (acceleration of gastric emptying of a liquid meal delayed by lidamidine)” value is on record as −0.59.
